# Entries after “also recorded” stand apart in the source; their conditions may differ. Where two headings read alike, the source gives them in different places.
# Columns and labels:
# H3K9AC (HT1080 cells) = experiment: H3K9AC Sandwich ELISA Assay in HT1080 cells (KAT2A primary cell-based screening assay); set-up: species or system Human
# In short: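 Acetylated H3K9 quantified by luminescent sandwich ELISA (total H3 capture, H3K9ac detection) on HCl lysates of HT1080 cells. Cells had 24 h compound exposure at 37 °C, top concentration 10 µM, 10-point 3-fold series, 0.1% DMSO; IC50 from four-parameter fitting.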
# MM.1S cells = experiment: MM1.S 10 Day Proliferation Assay (CellTiter-Glo); assay type: cell-based, Human
# In short: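 MM.1S cells, 500/well in ultra-low-attachment plates, were pre-incubated 16 h, then exposed to a 10-point 1:3 dilution series (top 10 μM final, 0.1% DMSO) for 10 days at 37 °C, with compound-containing medium refreshed at day 5. Viability was read by CellTiter-Glo luminescence; IC50 came from four-parameter fit.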
# KAT2A = KAT2A (Homo sapiens (Human), UniProt Q92830); experiment: KAT2A acetyltransferase biochemical assay (RapidFire mass spectrometry, AcCoA to CoA); conditions: read-out: KAT2A Ki at 1 μM AcCoA, 5 μM H3 1-21 peptide, 0.5 nM KAT2A, 90-minute reaction
# KAT2B = KAT2B (Homo sapiens (Human), UniProt Q92831); experiment: KAT2B acetyltransferase biochemical assay (RapidFire mass spectrometry, AcCoA to CoA); conditions: read-out: KAT2B Ki at 1 μM AcCoA; 1 μM AcCoA, 5 μM H3 1-21 peptide, 0.5 nM KAT2B, 90-minute reaction
# [1] = Metabolite profile in hepatocytes, recombinant human UGT enzymes, and dog plasma and urine; assay type: in vitro ADME; conditions: hepatocytes (mouse, dog, human), plasma and urine from dogs
# Description: The metabolite profile of 2-(2′-cyclobutyl-3′-fluoro-6-{[(1R,3R)-3-{[(7S)-7-fluoro-5-azaspiro[3.4]octane-7-carbonyl]amino}cyclopentyl]oxy}[1, 1′-biphenyl]-3-yl)-2-methylpropanoic acid (Example A1) assessed in hepatocytes (mouse, dog, human), recombinant human UGT enzymes, and plasma and urine from dogs.
# General methods/reviews of obtaining metabolite profile and identifying metabolites of a compound are described in: DAVLIE, 0., et al., “Assessment of Three Human in Vitro Systems in the Generation of Major Human Excretory and Circulating Metabolites,” Chemical Research in Toxicology, 2009, 22(2):357-368; KING, R., “Chapter Three—Biotransformations in Drug Metabolism.” Drug Metabolism Handbook: Concepts and Applications in Cancer Research, edited by Ala F. Nassar et al., Wiley, 2022, 17-38; WU, Y., et al., “Metabolite Identification in Preclinical and Clinical Phase of Drug Development,” Current Drug Metabolism, 2021, 22(11):838-857; GODZIEN, J., et al., “Chapter Fifteen—Metabolite Annotation and Identification.” Comprehensive Analytical Chemistry, Elsevier, 2018, 415-445.
# [2] = Homo sapiens, HT-1080, H3K9AC sandwich ELISA
# KAT2A, sequence (Q92830 whole entry): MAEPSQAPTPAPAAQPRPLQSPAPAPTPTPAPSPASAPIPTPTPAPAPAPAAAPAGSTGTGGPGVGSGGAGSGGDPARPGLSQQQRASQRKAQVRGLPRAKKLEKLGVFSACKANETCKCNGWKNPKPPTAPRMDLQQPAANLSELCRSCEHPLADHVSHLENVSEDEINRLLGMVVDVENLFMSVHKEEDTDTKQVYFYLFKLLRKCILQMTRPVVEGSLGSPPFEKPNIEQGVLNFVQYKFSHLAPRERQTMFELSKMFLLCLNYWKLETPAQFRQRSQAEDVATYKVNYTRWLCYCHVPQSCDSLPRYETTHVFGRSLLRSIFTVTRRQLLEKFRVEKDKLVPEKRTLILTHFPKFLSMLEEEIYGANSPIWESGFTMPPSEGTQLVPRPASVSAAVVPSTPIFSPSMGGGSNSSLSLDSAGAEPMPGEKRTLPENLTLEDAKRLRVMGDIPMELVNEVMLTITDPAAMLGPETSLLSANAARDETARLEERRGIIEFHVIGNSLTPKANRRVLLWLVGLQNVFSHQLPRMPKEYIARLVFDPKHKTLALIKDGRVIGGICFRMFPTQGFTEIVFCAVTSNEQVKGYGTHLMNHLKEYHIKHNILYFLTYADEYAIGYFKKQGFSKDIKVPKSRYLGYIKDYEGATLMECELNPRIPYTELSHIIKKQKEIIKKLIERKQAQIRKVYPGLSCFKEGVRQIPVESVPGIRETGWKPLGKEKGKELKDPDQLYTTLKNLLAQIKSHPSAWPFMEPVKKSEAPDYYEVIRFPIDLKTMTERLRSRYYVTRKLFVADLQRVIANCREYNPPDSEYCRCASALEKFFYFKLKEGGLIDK
# KAT2B, sequence (Q92831 2-832): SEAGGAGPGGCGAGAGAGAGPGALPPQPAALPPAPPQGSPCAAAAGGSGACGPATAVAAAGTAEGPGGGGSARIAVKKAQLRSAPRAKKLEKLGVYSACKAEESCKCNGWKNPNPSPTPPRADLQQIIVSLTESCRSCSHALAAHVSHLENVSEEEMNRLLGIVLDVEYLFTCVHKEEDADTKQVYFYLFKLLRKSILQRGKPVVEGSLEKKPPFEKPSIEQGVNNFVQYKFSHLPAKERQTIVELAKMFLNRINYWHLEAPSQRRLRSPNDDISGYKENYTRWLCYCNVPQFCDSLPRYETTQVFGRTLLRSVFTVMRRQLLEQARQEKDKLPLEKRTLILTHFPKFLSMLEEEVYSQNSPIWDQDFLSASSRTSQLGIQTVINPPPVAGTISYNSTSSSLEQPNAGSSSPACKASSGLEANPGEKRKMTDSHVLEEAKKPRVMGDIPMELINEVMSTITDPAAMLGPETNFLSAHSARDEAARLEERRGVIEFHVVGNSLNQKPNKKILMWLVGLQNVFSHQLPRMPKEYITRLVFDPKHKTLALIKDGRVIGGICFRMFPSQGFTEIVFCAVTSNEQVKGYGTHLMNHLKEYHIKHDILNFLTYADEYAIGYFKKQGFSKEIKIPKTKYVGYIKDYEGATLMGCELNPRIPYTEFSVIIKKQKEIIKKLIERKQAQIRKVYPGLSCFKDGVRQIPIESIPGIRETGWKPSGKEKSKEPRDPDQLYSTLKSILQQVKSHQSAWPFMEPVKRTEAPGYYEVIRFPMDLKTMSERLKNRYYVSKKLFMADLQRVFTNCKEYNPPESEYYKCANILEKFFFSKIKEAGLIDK
smiles,measurement,setting,value
"CCc1c(F)cccc1-c1cc(C(C)(C)C(=O)NS(=O)(=O)CC)ccc1O[C@@H]1CC[C@@H](NC(=O)[C@@]2(F)CNC3(CCCC3)C2)C1 (single isomer, unassigned) [Example C25]",IC50,H3K9AC (HT1080 cells); H3K9AC sandwich ELISA,1.71 nM
same,IC50,MM.1S cells,9.29 nM
same,Ki,KAT2A,0.14 nM
same,Ki,KAT2B,0.55 nM
"CC(C)(C(=O)NS(C)(=O)=O)c1ccc(O[C@@H]2CC[C@@H](NC(=O)[C@@]3(F)CNC4(CCCC4)C3)C2)c(-c2cccc(F)c2C2CCC2)c1 (single isomer, unassigned) [Example C16]",IC50,H3K9AC (HT1080 cells); H3K9AC sandwich ELISA,23.2 nM
same,IC50,MM.1S cells,81.8 nM
same,Ki,KAT2A,0.08 nM
same,Ki,KAT2B,0.06 nM
"CC1(C)CNC[C@](F)(C(=O)N[C@@H]2CC[C@@H](Oc3ccc(CC(=O)O)cc3-c3cccc(F)c3C3CCC3)C2)C1 (single isomer, unassigned) [Example A23]",IC50,H3K9AC (HT1080 cells); [2],6.36 nM
same,IC50,"MM.1S cells; Homo sapiens, MM1.S, 240 h",60 nM
same,Ki,KAT2A,0.57 nM
same,Ki,KAT2B,2.85 nM
"CC1(C)C[C@@](F)(C(=O)N[C@@H]2CC[C@@H](Oc3ccc(C(C)(C)C(=O)NS(=O)(=O)N4CCC4)cc3-c3cccc(F)c3C3CCC3)C2)CN1 (single isomer, unassigned) [Example C7]",IC50,H3K9AC (HT1080 cells); [2],5.79 nM
same,IC50,"MM.1S cells; Homo sapiens, MM1.S, 240 h",17.5 nM
same,Ki,KAT2A,0.07 nM
same,Ki,KAT2B,0.04 nM
"CCc1c(F)cccc1-c1cc(C(C)(C)C(=O)NS(=O)(=O)C(C)C)ccc1O[C@@H]1CC[C@@H](NC(=O)[C@@]2(F)CNC3(CCCC3)C2)C1 (single isomer, unassigned) [Example C29]",IC50,H3K9AC (HT1080 cells); [2],1.86 nM
same,IC50,"MM.1S cells; Homo sapiens, MM1.S, 240 h",7.11 nM
same,Ki,KAT2A,0.14 nM
same,Ki,KAT2B,0.47 nM
"CC(C)(C(=O)NS(C)(=O)=O)c1ccc(O[C@@H]2CC[C@@H](NC(=O)[C@]3(F)CNC4(CCC4)C3)C2)c(-c2cccc(F)c2C2CC2)c1 (single isomer, unassigned) [Example C14]",IC50,H3K9AC (HT1080 cells); [2],17.7 nM
same,IC50,"MM.1S cells; Homo sapiens, MM1.S, 240 h",63.7 nM
same,Ki,KAT2A,1.41 nM
same,Ki,KAT2B,5.62 nM
"CN1CC(C)(C)C[C@H]1C(=O)N[C@@H]1CC[C@@H](Oc2cccc(C(=O)O)c2-c2cccc(F)c2C2CCC2)C1 (atropisomer, axis not shown) [Example H3, (1ψ)-2′-cyclobutyl-3′-fluoro-6-({(1R,3R)-3-[(1,4,4-trimethyl-L-prolyl)amino]cyclopentyl}oxy)[1,1′-biphenyl]-2-carboxylic acid]",IC50,H3K9AC (HT1080 cells); [2],57.2 nM
same,IC50,"MM.1S cells; Homo sapiens, MM1.S, 240 h",219 nM
same,Ki,KAT2A,18.3 nM
same,Ki,KAT2B,32.9 nM
"CC(C)(C(=O)NS(=O)(=O)N1CCC1)c1ccc(O[C@@H]2CC[C@@H](NC(=O)[C@@]3(F)CNC4(CCC4)C3)C2)c(-c2cccc(F)c2C2CCC2)c1 [Example C3, (7S)-N-{(1R,3R)-3-[(5-{1-[(azetidin-1-ylsulfonyl)amino]-2-methyl-1-oxopropan-2-yl}-2′-cyclobutyl-3′-fluorobiphenyl-2-yl)oxy]cyclopentyl}-7-fluoro-5-azaspiro[3.4]octane-7-carboxamide]",IC50,H3K9AC (HT1080 cells); [2],3.84 nM
same,IC50,"MM.1S cells; Homo sapiens, MM1.S, 240 h",6.22 nM
same,Ki,KAT2A,0.05 nM
same,Ki,KAT2B,0.06 nM
"CC(C)(C(=O)O)c1ccc(O[C@@H]2CC[C@@H](NC(=O)[C@@]3(F)CNC4(CCC4)C3)C2)c(-c2cccc(F)c2C2CCC2)c1 [Example A1, 2-(2′-cyclobutyl-3′-fluoro-6-{[(1R,3R)-3-{[(7S)-7-fluoro-5-azaspiro[3.4]octane-7-carbonyl]amino}cyclopentyl]oxy}[1,1′-biphenyl]-3-yl)-2-methylpropanoic acid]",IC50,H3K9AC (HT1080 cells); [2],8.16 nM
same,IC50,"MM.1S cells; Homo sapiens, MM1.S, 240 h",45.3 nM
same,additional metabolites observed,[1],"CYP-mediated oxidation on the cyclobutane ring, the gem-dimethyl group and/or one or both of the biaryl rings; also recorded: direct glucose conjugate from UGT enzymes or chemical reaction"
same,most significant metabolite observed,[1],glucuronidation of the carboxylic acid group (Acyl glucuronide)
same,Ki,KAT2A,0.47 nM
same,Ki,KAT2B,2.65 nM

# Reference: patent US20250188030A1, “Biphenyl and Phenylpyridine Compounds” (Pfizer Inc., priority 2023, published 2025)
